Source: the NIST ThermoML archive (doi:10.1016/j.jct.2014.11.007)

Assay: mn = molality of the nth substance listed, in mol/kg
Conditions: 100 kPa, Liquid; for speed of sound: Frequency=3 MHz, Sing-around technique in a fixed-path interferometer; for mass density: Vibrating tube method

O=C([O-])Cc1ccccc1Nc1c(Cl)cccc1Cl.[Na+] [sodium diclofenac] + O
Conditions | mass density, 293.15 K [kg/m3] | mass density, 298.15 K [kg/m3] | mass density, 303.15 K [kg/m3] | mass density, 308.15 K [kg/m3] | mass density, 313.15 K [kg/m3] | speed of sound, 293.15 K [m/s] | speed of sound, 298.15 K [m/s] | speed of sound, 303.15 K [m/s] | speed of sound, 308.15 K [m/s] | speed of sound, 313.15 K [m/s]
m1 = 0.00165 | 998.454 | 997.297 | 995.899 | 994.285 | 992.465 | 1483.5 | 1497.6 | 1509.9 | 1520.6 | 1529.6
m1 = 0.00255 | 998.563 | 997.404 | 996.005 | 994.389 | 992.569 | 1483.7 | 1497.7 | 1510 | 1520.7 | 1529.7
m1 = 0.0027 | 998.582 | 997.423 | 996.023 | 994.407 | 992.587 | 1483.7 | 1497.7 | 1510 | 1520.7 | 1529.7
m1 = 0.00314 | 998.638 | 997.477 | 996.078 | 994.461 | 992.64 | 1483.7 | 1497.8 | 1510.1 | 1520.7 | 1529.8
m1 = 0.00352 | 998.687 | 997.527 | 996.125 | 994.508 | 992.687 | 1483.8 | 1497.8 | 1510.1 | 1520.8 | 1529.8
m1 = 0.00413 | 998.769 | 997.607 | 996.205 | 994.588 | 992.767 | 1483.9 | 1497.9 | 1510.2 | 1520.8 | 1529.8
m1 = 0.00504 | 998.896 | 997.733 | 996.33 | 994.71 | 992.886 | 1484 | 1498 | 1510.3 | 1520.9 | 1529.9
m1 = 0.00604 | 999.044 | 997.88 | 996.477 | 994.853 | 993.027 | 1484.1 | 1498.1 | 1510.4 | 1521 | 1530
m1 = 0.00698 | 999.192 | 998.027 | 996.618 | 994.995 | 993.169 | 1484.2 | 1498.2 | 1510.5 | 1521.1 | 1530.1
m1 = 0.00742 | 999.257 | 998.095 | 996.689 | 995.064 | 993.238 | 1484.3 | 1498.3 | 1510.6 | 1521.1 | 1530.1
